Experimental data reported in the NIST ThermoML archive (doi:10.1016/j.jct.2017.11.007).

Assay: mn = molality of the nth substance listed, in mol/kg
Conditions: 74.66 kPa, Liquid; for speed of sound: Frequency=3 MHz, Single path-length method; for mass density: Vibrating tube method

Cc1cc(C)nc([N-]S(=O)(=O)c2ccc(N)cc2)n1.[Na+] + O
Conditions	mass density [kg/m3]	speed of sound [m/s]
278.15 K, m1 = 0.00501	1000.54	1427.9
278.15 K, m1 = 0.00799	1000.88	1428.7
278.15 K, m1 = 0.01	1001.11	1429.2
278.15 K, m1 = 0.01488	1001.67	1430.3
278.15 K, m1 = 0.01983	1002.23	1431.3
278.15 K, m1 = 0.02501	1002.81	1432.3
278.15 K, m1 = 0.02961	1003.34	1433.5
278.15 K, m1 = 0.03503	1003.95	1434.6
278.15 K, m1 = 0.0401	1004.52	1435.7
278.15 K, m1 = 0.04493	1005.06	1436.6
278.15 K, m1 = 0.04993	1005.63	1437.7
278.15 K, m1 = 0.05504	1006.2	1438.8
278.15 K, m1 = 0.05966	1006.73	1439.9
283.15 K, m1 = 0.00501	1000.27	1448.8
283.15 K, m1 = 0.00799	1000.6	1449.4
283.15 K, m1 = 0.01	1000.83	1449.9
283.15 K, m1 = 0.01488	1001.37	1450.9
283.15 K, m1 = 0.01983	1001.92	1451.9
283.15 K, m1 = 0.02501	1002.5	1452.9
283.15 K, m1 = 0.02961	1003.01	1453.9
283.15 K, m1 = 0.03503	1003.61	1455
283.15 K, m1 = 0.0401	1004.18	1456
283.15 K, m1 = 0.04493	1004.71	1456.8
283.15 K, m1 = 0.04993	1005.27	1457.8
283.15 K, m1 = 0.05504	1005.83	1458.8
283.15 K, m1 = 0.05966	1006.35	1459.8
288.15 K, m1 = 0.00501	999.659	1467.2
288.15 K, m1 = 0.00799	999.989	1467.8
288.15 K, m1 = 0.01	1000.21	1468.3
288.15 K, m1 = 0.01488	1000.75	1469.2
288.15 K, m1 = 0.01983	1001.29	1470.1
288.15 K, m1 = 0.02501	1001.86	1471.1
288.15 K, m1 = 0.02961	1002.36	1472
288.15 K, m1 = 0.03503	1002.95	1473
288.15 K, m1 = 0.0401	1003.51	1474
288.15 K, m1 = 0.04493	1004.03	1474.8
288.15 K, m1 = 0.04993	1004.58	1475.7
288.15 K, m1 = 0.05504	1005.14	1476.7
288.15 K, m1 = 0.05966	1005.65	1477.6
293.15 K, m1 = 0.00501	998.758	1483.5
293.15 K, m1 = 0.00799	999.081	1484
293.15 K, m1 = 0.01	999.302	1484.5
293.15 K, m1 = 0.01488	999.834	1485.3
293.15 K, m1 = 0.01983	1000.37	1486.2
293.15 K, m1 = 0.02501	1000.92	1487.1
293.15 K, m1 = 0.02961	1001.42	1487.9
293.15 K, m1 = 0.03503	1002	1488.9
293.15 K, m1 = 0.0401	1002.55	1489.8
293.15 K, m1 = 0.04493	1003.07	1490.5
293.15 K, m1 = 0.04993	1003.61	1491.4
293.15 K, m1 = 0.05504	1004.16	1492.3
293.15 K, m1 = 0.05966	1004.66	1493.2
298.15 K, m1 = 0.00501	997.59	1497.7
298.15 K, m1 = 0.00799	997.912	1498.2
298.15 K, m1 = 0.01	998.128	1498.6
298.15 K, m1 = 0.01488	998.655	1499.4
298.15 K, m1 = 0.01983	999.182	1500.2
298.15 K, m1 = 0.02501	999.733	1501.1
298.15 K, m1 = 0.02961	1000.22	1501.9
298.15 K, m1 = 0.03503	1000.79	1502.8
298.15 K, m1 = 0.0401	1001.34	1503.6
298.15 K, m1 = 0.04493	1001.85	1504.3
298.15 K, m1 = 0.04993	1002.39	1505.2
298.15 K, m1 = 0.05504	1002.93	1506
298.15 K, m1 = 0.05966	1003.42	1506.8
303.15 K, m1 = 0.00501	996.185	1510.1
303.15 K, m1 = 0.00799	996.504	1510.6
303.15 K, m1 = 0.01	996.718	1510.9
303.15 K, m1 = 0.01488	997.238	1511.7
303.15 K, m1 = 0.01983	997.76	1512.4
303.15 K, m1 = 0.02501	998.303	1513.2
303.15 K, m1 = 0.02961	998.79	1514
303.15 K, m1 = 0.03503	999.357	1514.8
303.15 K, m1 = 0.0401	999.892	1515.6
303.15 K, m1 = 0.04493	1000.4	1516.3
303.15 K, m1 = 0.04993	1000.93	1517.1
303.15 K, m1 = 0.05504	1001.47	1517.8
303.15 K, m1 = 0.05966	1001.95	1518.6
308.15 K, m1 = 0.00501	994.563	1520.7
308.15 K, m1 = 0.00799	994.878	1521.2
308.15 K, m1 = 0.01	995.089	1521.5
308.15 K, m1 = 0.01488	995.605	1522.2
308.15 K, m1 = 0.01983	996.12	1523
308.15 K, m1 = 0.02501	996.661	1523.7
308.15 K, m1 = 0.02961	997.14	1524.4
308.15 K, m1 = 0.03503	997.703	1525.2
308.15 K, m1 = 0.0401	998.234	1525.9
308.15 K, m1 = 0.04493	998.733	1526.6
308.15 K, m1 = 0.04993	999.258	1527.3
308.15 K, m1 = 0.05504	999.792	1528
308.15 K, m1 = 0.05966	1000.27	1528.7
